{"source": "ChEMBL document CHEMBL5727557", "about": "“SHP2 inhibitors and uses thereof” (2020)", "molecular_target": "T1, Tyrosine-protein phosphatase non-receptor type 11 (Homo sapiens, UniProt Q06124)", "T1 sequence (Q06124 whole entry)": "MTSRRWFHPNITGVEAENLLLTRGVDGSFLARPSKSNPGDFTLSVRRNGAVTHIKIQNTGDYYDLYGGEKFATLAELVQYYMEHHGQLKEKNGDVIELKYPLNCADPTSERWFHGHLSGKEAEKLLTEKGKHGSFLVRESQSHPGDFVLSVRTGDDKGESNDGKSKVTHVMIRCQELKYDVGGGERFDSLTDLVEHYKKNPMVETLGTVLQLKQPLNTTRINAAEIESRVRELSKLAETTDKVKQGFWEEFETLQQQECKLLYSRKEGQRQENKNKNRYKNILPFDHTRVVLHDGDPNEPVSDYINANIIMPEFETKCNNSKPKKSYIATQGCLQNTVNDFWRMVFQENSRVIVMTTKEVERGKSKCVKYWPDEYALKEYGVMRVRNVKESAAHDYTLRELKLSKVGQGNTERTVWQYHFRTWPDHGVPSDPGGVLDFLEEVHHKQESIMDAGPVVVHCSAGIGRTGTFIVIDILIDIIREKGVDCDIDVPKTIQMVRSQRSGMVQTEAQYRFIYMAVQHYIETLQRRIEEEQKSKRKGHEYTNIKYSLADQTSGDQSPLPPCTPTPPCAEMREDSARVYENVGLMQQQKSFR", "assay": "SHP2 Phosphatase Assay: IC50 values were determined at room temperature in 384-well black polystyrene plate, using a final reaction volume of 15 μl and the following assay buffer conditions: 60 mM Hepes (pH=7.2), 75 mM NaCl, 75 mM KCl, and 1 mM EDTA, 0.05% P-20, 5 mM dithiothreitol (DTT). Full length SHP2 enzyme (diluted to 0.1 nM in reaction buffer) were co-incubated with 1 uM IRS-1 peptide and 0.01 nM to 10 μM compounds of the disclosure for 60 min. The surrogate substrate DiFMUP (5 μL, […]) was added, and incubated at rt for 60 min. The reaction was then quenched by the addition of 5 μL of a 40 μM solution of bpV(Phen). The fluorescence signal was monitored using a microplate reader (Envision, Perkin-Elmer) using excitation and emission wavelengths of 360 nm and 450 nm, respectively. The inhibitor dose-response curves were analyzed using normalized IC50 regression curve fitting with control-based normalization.", "data": [{"smiles": "CC1(CN)CCN(c2ncc(Sc3cccc(NC(=O)c4c(O)nc5cnccn5c4=O)c3Cl)[nH]c2=O)CC1", "values": [{"measurement": "IC50", "result": "< 50", "unit": "nM"}]}]}
